Patent US4393076A, “Anti-inflammatory and analgesic gel composition” (priority 1980, dated 1983)

Tests used:
[1] = for Stability: indomethacin: to alkalies, ketoprofen and flurbiprofen: to the gel base
[2] = orally administered; cited from earlier work
[3] = tested on: gastric mucous membrane; assay: Gastric mucous membrane troubles in rats (ulceration); type: in vivo, rats (Wister strain, male); settings: oral, 1 mg/Kg, 6 hours
Experimental: Anti-inflammatory activity on gastric mucous membrane troubles in rats
Male rats of Wister strain, each weighing about 200 g, were fasted except for unlimited feeding of water for a time period of 24 hours, after which each of the test compounds shown in Table 4 was administered to the rats so fasted. […] Six hours after said administration, the test animals were slaughtered to remove their stomachs which were incised along the greater curvature thereof to visually observe whether or not an ulcer was formed at the gastric mucous membrane of their stomachs. The ulceration ratio (%) was calculated from the following equation: [formula]

SMILES | Solubility in the gel base ([1]; in words) | Stability [1] | Crystallization ([1]; gel base, in words) | Medicinal efficacy compared with the effective ingredient of the composition of this invention [2] | Ulceration ratio [3] [%] | Ulceration ratio ([3]; listed as indomethacin powder) [%]
CC(C(=O)O)c1ccc(-c2ccccc2)c(F)c1 (centres unmarked) [flurbiprofen] | excellent | excellent in stability | – | – | – | –
COc1ccc2c(c1)c(CC(=O)O)c(C)n2C(=O)c1ccc(Cl)cc1 [indomethacin] | inferior in solubility in the gel base | unstable to alkalies | apt to crystallize out | equal or slightly superior in medicinal efficacy | – | –
COc1ccc2c(c1)c(CC(=O)O)c(C)n2C(=O)c1ccc(Cl)cc1 [Indomethacin powder] | – | – | – | – | 100.0 | 100
